Each structure is given as a SMILES string.

This assay deals with T1, JAK2 (JH1domain-catalytic, Y1007F,Y1008F) kinase (Homo sapiens, UniProt O60674, Y1007F/Y1008F).
T1 construct: JAK2 (JH1domain-catalytic, Y1007F,Y1008F) kinase was expressed as N-terminal fusion; made in house; host or cells: transiently transfected HEK293 cells
T1 sequence (O60674 849-1124 Y1007F/Y1008F limits assumed): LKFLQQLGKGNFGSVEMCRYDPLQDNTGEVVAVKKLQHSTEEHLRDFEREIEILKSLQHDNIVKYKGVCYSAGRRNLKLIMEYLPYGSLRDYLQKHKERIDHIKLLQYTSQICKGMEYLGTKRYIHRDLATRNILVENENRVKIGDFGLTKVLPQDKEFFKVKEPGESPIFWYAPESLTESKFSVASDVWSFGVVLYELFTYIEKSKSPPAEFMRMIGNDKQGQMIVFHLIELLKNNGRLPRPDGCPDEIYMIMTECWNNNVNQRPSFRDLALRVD
Put plainly: JAK2 JH1 Domain Binding Assay. The settings on record: qPCR readout. A general note: Real-time PCR tracks product formation cycle by cycle.
As a reminder, the Kd is the constant that tells how readily two partners part at equilibrium. `CN(C)[C@@H]1CCN(Cc2cc(Nc3nc4ncc(Oc5cnn6ccncc56)c(Cl)c4n3C)cc(C(F)(F)F)c2)C1` [Example I-271, (R)-7-chloro-N-(3-((3-(dimethylamino)pyrrolidin-1-yl)methyl)-5-(trifluoromethyl)phenyl)-1-methyl-6-(pyrazolo[1,5-a]pyrazin-3-yloxy)-1H-imidazo[4,5-b]pyridin-2-amine] registered a Kd of less than 10 nM. Next, `COCCOc1nccn2ncc(Oc3cnc4nc(Nc5cc(C(F)(F)F)n(C6CC7(COC7)C6)n5)n(C)c4c3Cl)c12` [Example I-273, N-(1-(2-oxaspiro[3.3]heptan-6-yl)-5-(trifluoromethyl)-1H-pyrazol-3-yl)-7-chloro-6-((4-(2-methoxyethoxy)pyrazolo[1,5-a]pyrazin-3-yl)oxy)-1-methyl-1H-imidazo[4,5-b]pyridin-2-amine]: 10 to 50 nM. Next, `CN(C)c1cc(Nc2nc3ncc(Oc4cnn5ccncc45)c(Cl)c3n2C)cc(C(F)(F)F)n1` [Example I-274, N^4-(7-chloro-1-methyl-6-(pyrazolo[1,5-a]pyrazin-3-yloxy)-1H-imidazo[4,5-b]pyridin-2-yl)-N^2,N^2-dimethyl-6-(trifluoromethyl)pyridine-2,4-diamine]: 10 to 50 nM. Next, `CNc1nccn2ncc(Oc3cnc4nc(Nc5cc(OCC6CN(C)C6)cc(C(F)(F)F)c5)n(C)c4c3Cl)c12` [Example I-275, 7-chloro-1-methyl-6-((4-(methylamino)pyrazolo[1,5-a]pyrazin-3-yl)oxy)-N-(3-((1-methylazetidin-3-yl)methoxy)-5-(trifluoromethyl)phenyl)-1H-imidazo[4,5-b]pyridin-2-amine]: 10 to 50 nM; `CNc1nccn2ncc(Oc3cnc4nc(Nc5cc(C(F)(F)F)n([C@@H]6CCOC6)n5)n(C)c4c3Cl)c12` [Example I-276, (R)-7-chloro-1-methyl-6-((4-(methylamino)pyrazolo[1,5-a]pyrazin-3-yl)oxy)-N-(1-(tetrahydrofuran-3-yl)-5-(trifluoromethyl)-1H-pyrazol-3-yl)-1H-imidazo[4,5-b]pyridin-2-amine]: 10 to 50 nM.

Compound `Cn1c(Nc2cc(CN3CCCC3)cc(C(F)(F)F)c2)nc2ncc(Oc3cnn4ccncc34)c(Cl)c21` [Example I-277, 7-chloro-1-methyl-6-(pyrazolo[1,5-a]pyrazin-3-yloxy)-N-(3-(pyrrolidin-1-ylmethyl)-5-(trifluoromethyl)phenyl)-1H-imidazo[4,5-b]pyridin-2-amine] returned a Kd of less than 10 nM.

Take `CC(=O)N1CC2(CC(n3nc(Nc4nc5ncc(Oc6cnn7ccccc67)c(Cl)c5n4C)cc3C(F)(F)F)C2)C1` [Example I-278, 1-(6-(3-((7-chloro-1-methyl-6-(pyrazolo[1,5-a]pyridin-3-yloxy)-1H-imidazo[4,5-b]pyridin-2-yl)amino)-5-(trifluoromethyl)-1H-pyrazol-1-yl)-2-azaspiro[3.3]heptan-2-yl)ethan-1-one]: the Kd was less than 10 nM. With `Cn1cc(C(F)(F)F)cc(Nc2nc3ncc(Oc4cnn5ccc(N6CCOCC6)cc45)c(C#N)c3n2C)c1=O` [Example I-281, 1-methyl-2-((1-methyl-2-oxo-5-(trifluoromethyl)-1,2-dihydropyridin-3-yl)amino)-6-((5-morpholinopyrazolo[1,5-a]pyridin-3-yl)oxy)-1H-imidazo[4,5-b]pyridine-7-carbonitrile], the Kd was less than 10 nM.

On to `CNc1nccn2ncc(Oc3cnc4nc(Nc5cc(CN6CC[C@@H](N(C)C)C6)cc(C(F)(F)F)c5)n(C)c4c3Cl)c12` [Example I-282, (R)-7-chloro-N-(3-((3-(dimethylamino)pyrrolidin-1-yl)methyl)-5-(trifluoromethyl)phenyl)-1-methyl-6-((4-(methylamino)pyrazolo[1,5-a]pyrazin-3-yl)oxy)-1H-imidazo[4,5-b]pyridin-2-amine], for which the Kd was 10 to 50 nM.

`CN(C)[C@@H]1CCN(Cc2cc(C(F)(F)F)cc(Nc3nc4ncc(Oc5cnn6ccncc56)c(Cl)c4n3C)c2F)C1` [Example I-283, (R)-7-chloro-N-(3-((3-(dimethylamino)pyrrolidin-1-yl)methyl)-2-fluoro-5-(trifluoromethyl)phenyl)-1-methyl-6-(pyrazolo[1,5-a]pyrazin-3-yloxy)-1H-imidazo[4,5-b]pyridin-2-amine] gave a dissociation constant (Kd) of 10 to 50 nM.

The compound `CNc1nccn2ncc(Oc3cnc4nc(Nc5cc(CN6CCCC6)cc(C(F)(F)F)c5)n(C)c4c3Cl)c12` [Example I-284, 7-chloro-1-methyl-6-((4-(methylamino)pyrazolo[1,5-a]pyrazin-3-yl)oxy)-N-(3-(pyrrolidin-1-ylmethyl)-5-(trifluoromethyl)phenyl)-1H-imidazo[4,5-b]pyridin-2-amine] showed a Kd of 10 to 50 nM. Compound `CN(C)[C@H]1CCN(Cc2cc(C(F)(F)F)cc(Nc3nc4ncc(Oc5cnn6ccncc56)c(Cl)c4n3C)c2F)C1` [Example I-285, (S)-7-chloro-N-(3-((3-(dimethylamino)pyrrolidin-1-yl)methyl)-2-fluoro-5-(trifluoromethyl)phenyl)-1-methyl-6-(pyrazolo[1,5-a]pyrazin-3-yloxy)-1H-imidazo[4,5-b]pyridin-2-amine] displayed a Kd of 10 to 50 nM.

Compound `CNc1nccn2ncc(Oc3cnc4nc(Nc5cc(CN6CC[C@H](N(C)C)C6)cc(C(F)(F)F)c5)n(C)c4c3Cl)c12` [Example I-286, (S)-7-chloro-N-(3-((3-(dimethylamino)pyrrolidin-1-yl)methyl)-5-(trifluoromethyl)phenyl)-1-methyl-6-((4-(methylamino)pyrazolo[1,5-a]pyrazin-3-yl)oxy)-1H-imidazo[4,5-b]pyridin-2-amine] registered a Kd of 10 to 50 nM. Next, `Cc1nc(Nc2nc3ncc(Oc4cnn5ccncc45)c(Cl)c3n2C)nc(C)c1N1CCCC1` [Example I-287, 7-chloro-N-(4,6-dimethyl-5-(pyrrolidin-1-yl)pyrimidin-2-yl)-1-methyl-6-(pyrazolo[1,5-a]pyrazin-3-yloxy)-1H-imidazo[4,5-b]pyridin-2-amine]: 10 to 50 nM. On to `Cn1cc(C(F)(F)F)cc(Nc2nc3ncc(Oc4cnc5[nH]cc(F)c5c4)c(Cl)c3n2C)c1=O` [Example I-288, 3-((7-chloro-6-((3-fluoro-1H-pyrrolo[2,3-b]pyridin-5-yl)oxy)-1-methyl-1H-imidazo[4,5-b]pyridin-2-yl)amino)-1-methyl-5-(trifluoromethyl)pyridin-2(1H)-one], for which the Kd was in the range of 10 to 50 nM. Next, `Cn1cc(C(F)(F)F)cc(Nc2nc3ncc(Oc4cnc5[nH]cc(F)c5c4)c(C#N)c3n2C)c1=O` [Example I-289, 6-((3-fluoro-1H-pyrrolo[2,3-b]pyridin-5-yl)oxy)-1-methyl-2-((1-methyl-2-oxo-5-(trifluoromethyl)-1,2-dihydropyridin-3-yl)amino)-1H-imidazo[4,5-b]pyridine-7-carbonitrile]: 10 to 50 nM; `Cc1cc2cc(Oc3cnc4nc(Nc5cc(C(F)(F)F)cn(C)c5=O)n(C)c4c3C#N)cnc2[nH]1` [Example I-290, 1-methyl-6-((2-methyl-1H-pyrrolo[2,3-b]pyridin-5-yl)oxy)-2-((1-methyl-2-oxo-5-(trifluoromethyl)-1,2-dihydropyridin-3-yl)amino)-1H-imidazo[4,5-b]pyridine-7-carbonitrile]: 10 to 50 nM.

As to `COc1ccc2c(Oc3cnc4nc(Nc5cc(C(F)(F)F)cn(C)c5=O)n(C)c4c3C#N)cnn2c1` [Example I-291, 6-((6-methoxypyrazolo[1,5-a]pyridin-3-yl)oxy)-1-methyl-2-((1-methyl-2-oxo-5-(trifluoromethyl)-1,2-dihydropyridin-3-yl)amino)-1H-imidazo[4,5-b]pyridine-7-carbonitrile], the Kd was less than 10 nM. Next, `Cn1cc(C(F)(F)F)cc(Nc2nc3ncc(Oc4cnn5cc(C#N)ccc45)c(Cl)c3n2C)c1=O` [Example I-292, 3-((7-chloro-1-methyl-2-((1-methyl-2-oxo-5-(trifluoromethyl)-1,2-dihydropyridin-3-yl)amino)-1H-imidazo[4,5-b]pyridin-6-yl)oxy)pyrazolo[1,5-a]pyridine-6-carbonitrile]: less than 10 nM. Next, `Cc1cc2cc(Oc3cnc4nc(Nc5cc(C(F)(F)F)cn(C)c5=O)n(C)c4c3Cl)cnc2[nH]1` [Example I-293, 3-((7-chloro-1-methyl-6-((2-methyl-1H-pyrrolo[2,3-b]pyridin-5-yl)oxy)-1H-imidazo[4,5-b]pyridin-2-yl)amino)-1-methyl-5-(trifluoromethyl)pyridin-2(1H)-one]: 10 to 50 nM; `Cn1cc(C(F)(F)F)cc(Nc2nc3ncc(Oc4cnc5[nH]c(C6CC6)cc5c4)c(Cl)c3n2C)c1=O` [Example I-294, 3-((7-chloro-6-((2-cyclopropyl-1H-pyrrolo[2,3-b]pyridin-5-yl)oxy)-1-methyl-1H-imidazo[4,5-b]pyridin-2-yl)amino)-1-methyl-5-(trifluoromethyl)pyridin-2(1H)-one]: 10 to 50 nM. Next, `Cn1c(Nc2cc(C(F)(F)F)cn([C@H]3C[C@H](O)C3)c2=O)nc2ncc(Oc3cnn4cccc(F)c34)c(Cl)c21` [Example I-295, trans-3-((7-chloro-6-((4-fluoropyrazolo[1,5-a]pyridin-3-yl)oxy)-1-methyl-1H-imidazo[4,5-b]pyridin-2-yl)amino)-1-(3-hydroxycyclobutyl)-5-(trifluoromethyl)pyridin-2(1H)-one]: 10 to 50 nM; `Cn1cc(C(F)(F)F)cc(Nc2nc3ncc(Oc4cnc5[nH]c(C6CC6)cc5c4)c(C#N)c3n2C)c1=O` [Example I-296, 6-((2-cyclopropyl-1H-pyrrolo[2,3-b]pyridin-5-yl)oxy)-1-methyl-2-((1-methyl-2-oxo-5-(trifluoromethyl)-1,2-dihydropyridin-3-yl)amino)-1H-imidazo[4,5-b]pyridine-7-carbonitrile]: 10 to 50 nM; `Cn1c(Nc2cc(C(F)(F)F)cn([C@H]3C[C@H](O)C3)c2=O)nc2ncc(Oc3cnn4cccc(F)c34)c(C#N)c21` [Example I-297, trans-6-((4-fluoropyrazolo[1,5-a]pyridin-3-yl)oxy)-2-((1-(3-hydroxycyclobutyl)-2-oxo-5-(trifluoromethyl)-1,2-dihydropyridin-3-yl)amino)-1-methyl-1H-imidazo[4,5-b]pyridine-7-carbonitrile]: less than 10 nM.

For the origin of these results see patent US12043632B2, “6-heteroaryloxy benzimidazoles and azabenzimidazoles as JAK2 inhibitors” (Ajax Therapeutics, Inc., priority 2020, dated 2024).
